# Measurements: US20110098177A1, “METHODS AND COMPOSITIONS OF PLANT MICRONUTRIENTS” (NOVUS INTERNATIONAL INC., priority 2006, published 2011)
# “Also recorded” adds a separate entry of the source.
# Experiments:
# Type in all cases: in vivo
# Tygress tomato plants [1] = experiment: Marketable yield, open-field tomato (Examples 7-10); settings: open field
# Summary of the method: (§1)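 Open-field 2008 trial, Balm FL; 'Tygress' tomato and 'Patriot' pepper transplants on drip-fed raised beds. Foliar micronutrient sprays at 3 and 5 WAT (BIOX-CM at 4 and 5), 60 gal/acre with surfactant. Youngest mature leaves sampled 6 WAT; RCBD, 5 replications, Fisher's LSD 5%.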
# [2] = tested on: Patriot bell pepper plants; experiment: Foliar nutrient concentration at 6 WAT, open-field bell pepper (Examples 7-10); settings: 6 WAT; open field; product rate as Table 17
# Summary of the method: as §1
# Tygress tomato plants [3] = experiment: Nutrient concentration of tomato fruits at 10 WAT, open field (Examples 7-10); settings: 10 WAT; open field; product rate as Table 17
# Summary of the method: as §1
# Tygress tomato plants [4] = experiment: Foliar nutrient concentration at 6 WAT, open-field tomato (Examples 7-10); settings: 6 WAT; open field; product rate as Table 17
# Summary of the method: as §1
# [5] = tested on: Patriot bell pepper plants; experiment: Marketable yield, open-field bell pepper (Examples 7-10); settings: open field; lb/acre/season: BIOX-Z 1.3, Cu 6.7, M 23.0, Fe 3.2, INC 4.0, INZ 0.6, CM 10.0, GZ 1.0, GF 4.0, EDZ 1.4, EDM 23.0
# Summary of the method: as §1
smiles,measurement,setting,value
"CSCCC(O)C(=O)[O-].CSCCC(O)C(=O)[O-].[Cu+2] (stereo not drawn) [BIOX-Cu, Cu-HMTBA]","Tomato marketable yield compared to control, statement",Tygress tomato plants [1],significantly increased tomato marketable yields relative to control; also recorded: significantly higher marketable yield of tomato fruits compared to control
same,"Marketable yield, Tomato","Tygress tomato plants [1]; lb/acre/season: BIOX-Z 1.3, Cu 6.7, M 23.0, Fe 3.2, INC 4.0, INZ 0.6, CM 10.0, GZ 1.0, GF 4.0, EDZ 1.4, EDM 23.0",19.2 a ton/acre
same,Foliar B concentration of bell pepper plants,[2],42 ppm
same,Foliar Ca concentration of bell pepper plants,[2],1.8%
same,Foliar Cu concentration of bell pepper plants,[2],407 b ppm
same,Foliar Fe concentration of bell pepper plants,[2],83 ppm
same,Foliar K concentration of bell pepper plants,[2],5.6%
same,Foliar Mg concentration of bell pepper plants,[2],0.58%
same,Foliar Mn concentration of bell pepper plants,[2],211 ppm
same,Foliar N concentration of bell pepper plants,[2],5.0%
same,Foliar P concentration of bell pepper plants,[2],0.21%
same,Foliar Zn concentration of bell pepper plants,[2],306 ppm
same,B concentration of tomato fruits,Tygress tomato plants [3],21 ppm
same,Ca concentration of tomato fruits,Tygress tomato plants [3],0.2%
same,Cu concentration of tomato fruits,Tygress tomato plants [3],21 ppm
same,Fe concentration of tomato fruits,Tygress tomato plants [3],77 ppm
same,K concentration of tomato fruits,Tygress tomato plants [3],8.5%
same,Mg concentration of tomato fruits,Tygress tomato plants [3],0.39%
same,Mn concentration of tomato fruits,Tygress tomato plants [3],37 ppm
same,N concentration of tomato fruits,Tygress tomato plants [3],4.4%
same,P concentration of tomato fruits,Tygress tomato plants [3],0.67%
same,Zn concentration of tomato fruits,Tygress tomato plants [3],294 ppm
same,Foliar B concentration of tomato plants,Tygress tomato plants [4],42 ppm
same,Foliar Ca concentration of tomato plants,Tygress tomato plants [4],1.8%
same,Foliar Cu concentration of tomato plants,Tygress tomato plants [4],407 b ppm
same,Foliar Fe concentration of tomato plants,Tygress tomato plants [4],83 ppm
same,Foliar K concentration of tomato plants,Tygress tomato plants [4],5.6%
same,Foliar Mg concentration of tomato plants,Tygress tomato plants [4],0.58%
same,Foliar Mn concentration of tomato plants,Tygress tomato plants [4],211 ppm
same,Foliar N concentration of tomato plants,Tygress tomato plants [4],5.0%
same,Foliar P concentration of tomato plants,Tygress tomato plants [4],0.21%
same,Foliar Zn concentration of tomato plants,Tygress tomato plants [4],306 ppm
same,"Marketable yield, Bell Pepper",[5],7.8 ton/acre
